The results in this text go back to patent US11655216B2 (priority 2016, dated 2023).

In experiment [1] the target is T1, glutathione-S-transferase (GST) tagged LXRalpha LBD (ligand binding domain) (Homo sapiens, UniProt Q13133).
T1 construct: purchased Invitrogen pv4655
T1 sequence (Q13133 209-447 limits assumed): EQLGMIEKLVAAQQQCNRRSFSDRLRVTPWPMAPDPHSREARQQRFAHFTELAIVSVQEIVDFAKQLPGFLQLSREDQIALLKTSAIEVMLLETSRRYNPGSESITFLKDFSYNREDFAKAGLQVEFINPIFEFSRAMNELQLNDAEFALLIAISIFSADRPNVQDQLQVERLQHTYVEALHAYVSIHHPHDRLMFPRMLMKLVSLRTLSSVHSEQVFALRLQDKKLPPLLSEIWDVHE
The experiment can be described thus: biochemical. The conditions noted are these: for LXR alpha actiivty at max dose: efficacy (% Emax) in relation to reference dual agonist T0901317. The procedure: (§1) While running the LanthaScreen™ TR-FRET Liver X Receptor Coactivator Assay, LXR alpha-LBD or LXR beta-LBD was added to ligand test compounds followed by addition of a mixture of a fluorescein-labelled coactivator peptide and terbium-conjugated anti-GST antibody. After an incubation period at room temperature, TR-FRET (time-resolved fluorescence resonance energy transfer) was measured using a filter-based instrument capable of TR-FRET, e.g. PerkinElmer Envision.

Experiment [2] addresses T2, glutathione-S-transferase (GST) tagged LXRbeta LBD (ligand binding domain) (Homo sapiens, UniProt P55055).
T2 construct: purchased Invitrogen pv4658
T2 sequence (P55055 222-460 limits assumed): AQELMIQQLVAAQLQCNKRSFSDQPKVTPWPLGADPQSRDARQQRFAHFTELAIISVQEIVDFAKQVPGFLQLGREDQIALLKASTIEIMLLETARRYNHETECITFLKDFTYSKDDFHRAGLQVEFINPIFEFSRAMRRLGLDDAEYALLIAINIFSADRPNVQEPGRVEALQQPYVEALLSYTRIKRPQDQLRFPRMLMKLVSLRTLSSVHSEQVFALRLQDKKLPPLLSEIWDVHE
Nature of the experiment: LanthaScreen TR-FRET Liver X Receptor Coactivator Assay, LXR beta. The class given is biochemical. The conditions noted are these: for LXR beta actiivty at max dose: efficacy (% Emax) in relation to reference dual agonist T0901317; for EC50: potency (Inflection Point), compound-induced co-activator recruitment, TR-FRET; for Emax: read-out: LXR beta actiivty at max dose, efficacy (% Emax) in relation to reference dual agonist T0901317. The procedure: as §1
On the technique in general: TR-FRET usually uses a lanthanide donor and a delayed reading to cut background.

The mark [3] stands for this setting: LXR alpha IP, potency (Inflection Point), compound-induced co-activator recruitment, TR-FRET.
Setting [4] is: read-out: LXR alpha actiivty at max dose, efficacy (% Emax) in relation to reference dual agonist T0901317.
Setting [5] is: potency (Inflection Point), compound-induced co-activator recruitment, TR-FRET.

Like-named read-outs stand apart in the source and are kept apart here.

As to “4-(2-((1S,2R or 1R, 2S)- 2-(1-((R or S)-2-amino- 3,3,3-trifluoro-2- phenylpropanoyl) piperidin-4- yl)cyclopropyl)ethoxy)-2- chloro-N- methylbenzamide [Example 10-4]”, the “LXR alpha actiivty at max dose” value in experiment [1] is given as 83%. For the same molecule, the EC50 turned out to be 586 nM in experiment [1] (potency (Inflection Point), compound-induced co-activator recruitment, TR-FRET, read-out: LXR alpha IP) and 8 nM in experiment [2] (read-out: LXR beta IP). Moreover, the “LXR beta actiivty at max dose” value in experiment [2] amounted to 147%.

For the molecule `COc1cccc(C(O)(C(=O)N2CCC3(CCC(Oc4ccc(C(=O)N(C)C)c(Cl)c4)CC3)CC2)C(F)(F)F)c1` (single isomer, unassigned) [Example 1-1, 2-chloro-N,N-dimethyl-4-(3-((R or S)-3,3,3-trifluoro-2-hydroxy-2-(3-methoxyphenyl)propanoyl)-3-azaspiro[5.5]undecan-9-yloxy)benzamide], the figures for the EC50 in experiment [1] (LXR alpha IP) and in experiment [2] (LXR beta IP) were 663 nM and 25 nM, respectively. In addition, the results for the Emax in experiment [1] (read-out: LXR alpha actiivty at max dose) and in experiment [2] were 22% and 51%, respectively.

Regarding `COc1cccc(C(O)(C(=O)N2CCC3(CCC(Oc4ccc(C(=O)N(C)C)c(Cl)n4)CC3)CC2)C(F)(F)F)c1` (single isomer, unassigned) [Example 1-2, 2-chloro-N,N-dimethyl-6-(3-((S or R)-3,3,3-trifluoro-2-hydroxy-2-(3-methoxyphenyl)propanoyl)-3-azaspiro[5.5]undecan-9-yloxy)nicotinamide], the EC50 is 1880 nM in experiment [1] (setting [3]) and 92 nM in experiment [2] (LXR beta IP). In addition, the Emax in experiment [1] (setting [4]) was 35%. In experiment [2], the “LXR beta actiivty at max dose” value stood at 120%.

On to `COc1cccc(C(O)(C(=O)N2CCC3(CCC(Oc4ccc(C(=O)N(C)C)c(Cl)n4)CC3)CC2)C(F)(F)F)c1` (single isomer, unassigned) [Example 1-3, 2-chloro-N,N-dimethyl-6-(3-((R or S)-3,3,3-trifluoro-2-hydroxy-2-(3-methoxyphenyl)propanoyl)-3-azaspiro[5.5]undecan-9-yloxy)nicotinamide], for which the EC50 in experiment [1] (setting [3]) amounted to 1160 nM; in experiment [2] (LXR beta IP), 75 nM. For the same molecule, in experiment [1], the “LXR alpha actiivty at max dose” value was 21%. In experiment [2], the “LXR beta actiivty at max dose” value came to 84%.

For `Cc1nc(OC2CCC3(CC2)CCN(C(=O)C(O)(c2cccc(OC4CC4)c2)C(F)(F)F)CC3)ccc1C(=O)N(C)C` (single isomer, unassigned) [Example 2-1, 6-(3-((R or S)-2-(3-cyclopropoxyphenyl)-3,3,3-trifluoro-2-hydroxypropanoyl)-3-azaspiro[5.5]undecan-9-yloxy)-N,N,2-trimethylnicotinamide], in experiment [1] (setting [5]), the “LXR alpha IP” value is on record as “No IP”. The results for the Emax in experiment [1] (setting [4]) and in experiment [2] were 0% and 46%, respectively. The EC50 in experiment [2] (LXR beta IP) was 140 nM.

As to `CN(C)C(=O)c1ccc(OCCCCC2CCN(C(=O)C(O)(c3cccc(Cl)c3)C(F)(F)F)CC2)cc1Cl` (single isomer, unassigned) [Example 3-2, (S or R)-2-chloro-4-(4-(1-(2-(3-chlorophenyl)-3,3,3-trifluoro-2-hydroxypropanoyl)piperidin-4-yl)butoxy)-N,N-dimethylbenzamide], the EC50 in experiment [1] (setting [3]) was determined as 128 nM; in experiment [2] (LXR beta IP) it was 6 nM. Further, the Emax came to 37% in experiment [1] (setting [4]) and 79% in experiment [2].

`CN(C)C(=O)c1ccc(OCCCCC2CCN(C(=O)C(O)(c3cccc(F)c3)C(F)(F)F)CC2)cc1Cl` (single isomer, unassigned) [Example 3-4, (R or S)-2-chloro-N,N-dimethyl-4-(4-(1-(3,3,3-trifluoro-2-(3-fluorophenyl)-2-hydroxypropanoyl)piperidin-4-yl)butoxy)benzamide]: the figures for the EC50 in experiment [1] (setting [3]) and in experiment [2] (LXR beta IP) were 126 nM and 7 nM, respectively. Also, the Emax in experiment [1] (setting [4]) is 41%; in experiment [2], 73%.

As to `CN(C)C(=O)c1ccc(OCCCCC2CCN(C(=O)C3(c4ccccc4)CCCO3)CC2)cc1Cl` (single isomer, unassigned) [Example 3-5, (S or R)-2-chloro-N,N-dimethyl-4-(4-(1-(2-phenyl-tetrahydrofuran-2-carbonyl)piperidin-4-yl)butoxy)benzamide], the “LXR alpha IP” value in experiment [1] (setting [5]) is reported as “No IP”. The Emax was found to be 0% in experiment [1] (setting [4]) and 54% in experiment [2]. Moreover, in experiment [2] (LXR beta IP), the EC50 came out at 91 nM.

For the molecule `CN(C)C(=O)c1ccc(OCCCCC2CCN(C(=O)C(O)(c3ccccc3)C(F)(F)F)CC2)cc1Cl` (single isomer, unassigned) [Example 3-8, 2-chloro-N,N-dimethyl-4-(4-(1-(3,3,3-trifluoro-2-hydroxy-2-phenylpropanoyl)piperidin-4-yl)butoxy)benzamide], the figures for the EC50 in experiment [1] (setting [3]) and in experiment [2] (LXR beta IP) were 173 nM and 5 nM, respectively. For the same molecule, the Emax in experiment [1] (setting [4]) came to 30%; in experiment [2], 85%.

As for `CN(C)C(=O)c1ccc(OCCCCC2CCN(C(=O)C(O)(c3cccc(OC(F)(F)F)c3)C(F)(F)F)CC2)cc1Cl` (single isomer, unassigned) [Example 3-9, (R or S)-2-chloro-N,N-dimethyl-4-(4-(1-(3,3,3-trifluoro-2-hydroxy-2-(3-(trifluoromethoxy)phenyl)propanoyl)piperidin-4-yl)butoxy)benzamide], the figures for the EC50 in experiment [1] (setting [3]) and in experiment [2] (LXR beta IP) were 289 nM and 15 nM, respectively. Besides, the results for the Emax in experiment [1] (setting [4]) and in experiment [2] were 17% and 64%, respectively.

For the molecule `CN(C)C(=O)c1ccc(OCCCCC2CCN(C(=O)C(C)(O)c3ccccc3)CC2)cc1Cl` (single isomer, unassigned) [Example 3-10, (S or R)-2-chloro-4-(4-(1-(2-hydroxy-2-phenylpropanoyl)piperidin-4-yl)butoxy)-N,N-dimethylbenzamide], in experiment [1] (setting [5]), the “LXR alpha IP” value is recorded as “No IP”. Further, the Emax in experiment [1] (setting [4]) was 5%; in experiment [2] it was 55%. In addition, the EC50 in experiment [2] (LXR beta IP) came to 353 nM.

With `CC(C)Oc1cccc(C(O)(C(=O)N2CCC(CCCCOc3ccc(C(=O)N(C)C)c(Cl)c3)CC2)C(F)(F)F)c1` (single isomer, unassigned) [Example 3-11, (S or R)-2-chloro-N,N-dimethyl-4-(4-(1-(3,3,3-trifluoro-2-hydroxy-2-(3-isopropoxyphenyl)propanoyl)piperidin-4-yl)butoxy)benzamide], the EC50 in experiment [1] (setting [3]) was 614 nM; in experiment [2] (LXR beta IP), 9 nM. In addition, the Emax in experiment [1] (setting [4]) amounted to 21%; in experiment [2], 80%.

Take `CCc1cccc(C(O)(C(=O)N2CCC(CCCCOc3ccc(C(=O)N(C)C)c(Cl)c3)CC2)C(F)(F)F)c1` (single isomer, unassigned) [Example 3-12, (R or S)-2-chloro-4-(4-(1-(2-(3-ethylphenyl)-3,3,3-trifluoro-2-hydroxypropanoyl)piperidin-4-yl)butoxy)-N,N-dimethylbenzamide]: in experiment [1] (setting [5]), the “LXR alpha IP” value was “No IP”. Moreover, the Emax in experiment [1] (setting [4]) stood at 15%; in experiment [2], 76%. Besides, the EC50 in experiment [2] (LXR beta IP) turned out to be 16 nM.

`COc1cccc(C(O)(C(=O)N2CCC(CCCCOc3ccc(C(=O)N(C)C)c(Cl)c3)CC2)C(F)(F)F)c1` (single isomer, unassigned) [Example 3-13, (S or R)-2-chloro-N,N-dimethyl-4-(4-(1-(3,3,3-trifluoro-2-hydroxy-2-(3-methoxyphenyl)propanoyl)piperidin-4-yl)butoxy)benzamide]: the “LXR alpha IP” value in experiment [1] (setting [5]) is given as “No IP”. Further, the Emax was found to be 0% in experiment [1] (setting [4]) and 61% in experiment [2]. Moreover, in experiment [2] (LXR beta IP), the EC50 was found to be 394 nM.

`CN(C)C(=O)c1ccc(OCCCCC2CCN(C(=O)C(O)(c3ccccc3)C(F)(F)F)CC2)nc1Cl` (single isomer, unassigned) [Example 3-16, (R or S)-2-chloro-N,N-dimethyl-6-(4-(1-(3,3,3-trifluoro-2-hydroxy-2-phenylpropanoyl)piperidin-4-yl)butoxy)nicotinamide] registered an EC50 in experiment [2] (LXR beta IP) of 259 nM. Further, the Emax in experiment [2] came out at 83%.

With `CN(C)C(=O)c1ccc(OCCCCC2CCN(C(=O)C(O)(c3ccccc3)C(F)(F)F)CC2)nc1Cl` (single isomer, unassigned) [Example 3-17, (S or R)-2-chloro-N,N-dimethyl-6-(4-(1-(3,3,3-trifluoro-2-hydroxy-2-phenylpropanoyl)piperidin-4-yl)butoxy)nicotinamide], the EC50 in experiment [2] (LXR beta IP) amounted to 8 nM. Moreover, in experiment [2], the “LXR beta actiivty at max dose” value came to 74%.

For `CCc1nc(OCCCCC2CCN(C(=O)C(O)(c3ccccc3)C(F)(F)F)CC2)ccc1C(=O)N(C)C` (centres unmarked) [Example 5-2, 2-ethyl-N,N-dimethyl-6-(4-(1-(3,3,3-trifluoro-2-hydroxy-2-phenylpropanoyl)piperidin-4-yl)butoxyl)nicotinamide], the EC50 in experiment [2] (LXR beta IP) was determined as 63 nM. Further, in experiment [2], the Emax is 77%.
